Measured values published in US20090298866A1, “Indole Compounds” (priority 2006, published 2009).
Structures can show the parent of a compound that is named as a salt.

Legend:
[1] = biological target: T1, human EP1 receptor (Homo sapiens, UniProt P34995); assay: human EP1 calcium mobilisation assay; assay type: cell-based; settings: human EP1, CHO-K1 cells, PGE2-induced calcium mobilisation; averages of a number of experiments; read-out: functional pKi (converted)
T1 construct: expressed in transfected cells; host or cells: CHO-K1
T1 sequence (P34995 1-402): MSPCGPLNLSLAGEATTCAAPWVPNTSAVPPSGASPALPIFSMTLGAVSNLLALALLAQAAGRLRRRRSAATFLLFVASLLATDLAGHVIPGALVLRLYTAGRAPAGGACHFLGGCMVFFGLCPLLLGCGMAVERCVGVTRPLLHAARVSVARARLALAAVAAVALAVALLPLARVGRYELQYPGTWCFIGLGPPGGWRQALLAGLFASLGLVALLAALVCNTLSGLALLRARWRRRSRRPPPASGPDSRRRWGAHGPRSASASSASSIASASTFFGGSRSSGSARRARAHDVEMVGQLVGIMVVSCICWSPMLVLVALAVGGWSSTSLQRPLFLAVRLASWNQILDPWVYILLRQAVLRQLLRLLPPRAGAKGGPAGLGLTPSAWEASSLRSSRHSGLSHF
Experimental: (§1) Briefly, the antagonist properties of compounds are assessed by their ability to inhibit the mobilisation of intracellular calcium ([Ca^2+]i) in response to activation of EP1 or EP3 receptors by the natural agonist hormone prostaglandin E2 (PGE2). Increasing concentrations of antagonist reduce the amount of calcium that a given concentration of PGE2 can mobilise. The net effect is to displace the PGE2 concentration-effect curve to higher concentrations of PGE2. The amount of calcium produced is assessed using a calcium-sensitive fluorescent dye such as Fluo-4, AM and a suitable instrument such as a Fluorimetric Imaging Plate Reader (FLIPR). Increasing amounts of [Ca^2+]i produced by receptor activation increase the amount of fluorescence produced by the dye and give rise to an increasing signal. The signal may be detected using the FLIPR instrument and the data generated may be analysed with suitable curve-fitting software.
(§2) The human EP1 or EP3 calcium mobilisation assay (hereafter referred to as ‘the calcium assay’) utilises Chinese hamster ovary-K1 (CHO-K1) cells into which a stable (pCIN; BioTechniques 20 (1996): 102-110) vector containing either EP1 or EP3 cDNA has previously been transfected. Cells are cultured in suitable flasks containing culture medium such as DMEM:F-12 supplemented with 10% v/v foetal calf serum, 2 mM L-glutamine, 0.25 mg/ml geneticin, 100 μM flurbiprofen and 10 μg/ml puromycin.
(§3) For assay, cells are harvested using a proprietary reagent that dislodges cells such as Versene. Cells are re-suspended in a suitable quantity of fresh culture media for introduction into a 384-well plate. Following incubation for 24 hours at 37° C. the culture media is replaced with a medium containing Fluo-4 and the detergent pluronic acid, and a further incubation takes place. Concentrations of compounds are then added to the plate in order to construct concentration-effect curves. This may be performed on the FLIPR in order to assess the agonist properties of the compounds. Concentrations of PGE2 are then added to the plate in order to assess the antagonist properties of the compounds.
(§4) The data so generated may be analysed by means of a computerised curve-fitting routine. The concentration of compound that elicits a half-maximal inhibition of the calcium mobilisation induced by PGE2 (pIC50) may then be estimated.

[2] = biological target: T1, human EP1 receptor; assay: Binding assay for the human prostanoid EP1 receptor (competition with [3H]-PGE2); settings: binding to human EP1 receptor, CHO-K1 membranes, [3H]-PGE2 3 nM; averages of a number of experiments
Experimental: Competition assay using [^3H]-PGE2.
Compound potencies are determined using a radioligand binding assay. In this assay compound potencies are determined from their ability to compete with tritiated prostaglandin E2 ([^3H]-PGE2) for binding to the human EP1 receptor. This assay utilises Chinese hamster ovary-K1 (CHO-K1) cells into which a stable vector containing the EP1 cDNA has previously been transfected. Cells are cultured in suitable flasks containing culture medium such as DMEM:F-12 supplemented with 10% v/v foetal calf serum, 2 mM L-glutamine, 0.25 mg/ml geneticin, 10 μg/ml puromycin and 10 μM indomethacin.
Cells are detached from the culture flasks by incubation in calcium and magnesium free phosphate buffered saline containing 1 mM disodium ethylenediaminetetraacetic acid (Na2EDTA) and 10 μM indomethacin for 5 min. The cells are isolated by centrifugation at 250×g for 5 mins and suspended in an ice cold buffer such as 50 mM Tris, 1 mM Na2EDTA, 140 mM NaCl, 10 μM indomethacin (pH 7.4). The cells are homogenised using a Polytron tissue disrupter (2×10 s burst at full setting), centrifuged at 48,000×g for 20 mins and the pellet containing the membrane fraction is washed (optional) three times by suspension and centrifugation at 48,000×g for 20 mins. The final membrane pellet is suspended in an assay buffer such as 10 mM 2-[N-morpholino]ethanesulphonic acid, 1 mM Na2EDTA, 10 mM MgCl2 (pH 6). Aliquots are frozen at −80° C. until required.
For the binding assay the cell membranes, competing compounds and [^3H]-PGE2 (3 nM final assay concentration) are incubated in a final volume of 100 μl for 30 min at 30° C. All reagents are prepared in assay buffer. Reactions are terminated by rapid vacuum filtration over GF/B filters using a Brandell cell harvester. The filters are washed with ice cold assay buffer, dried and the radioactivity retained on the filters is measured by liquid scintillation counting in Packard TopCount scintillation counter.
The data are analysed using non linear curve fitting techniques to determine the concentration of compound producing 50% inhibition of specific binding (IC50).

[3] = biological target: T2, human EP3 receptor (Homo sapiens, UniProt P43115); assay: human EP3 calcium mobilisation assay; assay type: cell-based; settings: heading: functional pKi; human EP3, CHO-K1 cells, PGE2-induced calcium mobilisation; averages of a number of experiments
T2 construct: expressed in transfected cells; host or cells: CHO-K1
T2 sequence (P43115 1-390): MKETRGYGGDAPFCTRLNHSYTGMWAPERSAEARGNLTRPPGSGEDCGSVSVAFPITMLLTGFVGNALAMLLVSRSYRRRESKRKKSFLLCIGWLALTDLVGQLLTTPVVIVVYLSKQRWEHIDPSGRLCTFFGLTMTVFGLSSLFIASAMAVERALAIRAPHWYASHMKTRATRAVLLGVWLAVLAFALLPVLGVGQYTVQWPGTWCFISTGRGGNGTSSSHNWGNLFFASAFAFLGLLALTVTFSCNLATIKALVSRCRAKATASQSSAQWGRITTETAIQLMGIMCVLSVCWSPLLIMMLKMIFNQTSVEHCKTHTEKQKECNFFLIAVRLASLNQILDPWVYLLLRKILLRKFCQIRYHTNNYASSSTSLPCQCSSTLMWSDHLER
Experimental: as §1, §2, §3, §4

SMILES | Ki [1] [nM] | IC50 [2] [nM] | Ki [3] [nM]
CC(C)Cc1cn(-c2nc(-c3nc4ccccc4[nH]3)cs2)c2cc(C(F)(F)F)ccc12 [Example 41, 2-{2-[3-Isobutyl-6-(trifluoromethyl)-1H-indol-1-yl]-1,3-thiazol-4-yl}-1H-benzimidazole] | ≤ 100 | ≤ 100 | 
CC(C)Cc1cn(-c2nc(-c3nc4cnccc4[nH]3)cs2)c2cc(Cl)ccc12 [Example 43, 2-{2-[6-Chloro-3-isobutyl-1H-indol-1-yl]-1,3-thiazol-4-yl}-1H-imidazo[4,5-c]pyridine hydrochloride] | ≤ 100 | ≤ 100 | 
CC(C)Cc1cn(Cc2nc(-c3nc4ccccc4[nH]3)cs2)c2cc(Cl)ccc12 [Example 40, 2-(2-{[6-Chloro-3-isobutyl-1H-indol-1-yl]methyl}-1,3-thiazol-4-yl)-1H-benzimidazole hydrochloride] | ≤ 100 | ≤ 100 | 
CC(C)Cc1cn(-c2nc(-c3nc4ccccc4[nH]3)cs2)c2cc(Br)ccc12 [Example 38, 2-{2-[6-Bromo-3-isobutyl-1H-indol-1-yl]-1,3-thiazol-4-yl}-1H-benzimidazole hydrochloride] | ≤ 100 | ≤ 100 | 
CC(C)Cc1cn(-c2nc(-c3nnc[nH]3)cs2)c2cc(Cl)ccc12 [Example 54, 3-[2-(6-Chloro-3-isobutyl-1H-indol-1-yl)-1,3-thiazol-4-yl]-4H-1,2,4-triazole] |  |  | > 3160
CC(C)Cc1cn(-c2nc(-c3nc4ccccc4[nH]3)co2)c2cc(Cl)ccc12 [Example 36, 2-{2-[6-Chloro-3-isobutyl-1H-indol-1-yl]-1,3-oxazol-4-yl}-1H-benzimidazole hydrochloride] |  | ≤ 100 | > 3160
Cc1nnc(-c2csc(-n3cc(CC(C)C)c4ccc(Cl)cc43)n2)[nH]1 [Example 55, 3-[2-(6-Chloro-3-isobutyl-1H-indol-1-yl)-1,3-thiazol-4-yl]-5-methyl-4H-1,2,4-triazole] |  | ≤ 100 | > 3160
CC(C)Cc1cn(-c2nc(-c3nc4cc(CO)ccc4[nH]3)cs2)c2cc(Cl)ccc12 [Example 45, (2-{2-[6-Chloro-3-isobutyl-1H-indol-1-yl]-1,3-thiazol-4-yl}-1H-benzimidazol-5-yl)methanol hydrochloride] |  | ≤ 100 | > 3160
CC(C)Cc1cn(-c2nc(C(=O)Nc3ccc(CO)cc3)cs2)c2cc(Br)ccc12 [Example 12, 2-[6-Bromo-3-isobutyl-1H-indol-1-yl]-N-[4-(hydroxymethyl)phenyl]-1,3-thiazole-4-carboxamide] | ≤ 100 | ≤ 100 | 
CC(C)Cc1cn(-c2nc(C(N)=O)cs2)c2cc(Br)ccc12 [Example 32, 2-[6-Bromo-3-isobutyl-1H-indol-1-yl]-1,3-thiazole-4-carboxamide] | ≤ 100 |  | 

Second part, the compound after the results:

Ki [1] [nM] | IC50 [2] [nM] | Ki [3] [nM] | SMILES
≤ 100 |  | > 3160 | CC(C)Cc1cn(-c2nc(-c3nc4c(CO)cccc4[nH]3)cs2)c2cc(Cl)ccc12 [Example 46, (2-{2-[6-Chloro-3-isobutyl-1H-indol-1-yl]-1,3-thiazol-4-yl}-1H-benzimidazol-4-yl)methanol]
 |  | > 3160 | CC(=O)OCc1ccc(C(=O)Nc2csc(-n3cc(CC(C)C)c4ccc(Cl)cc43)n2)cc1 [Example 56, {4-[({2-[6-Chloro-3-(2-methylpropyl)-1H-indol-1-yl]-1,3-thiazol-4-yl}amino)carbonyl]phenyl}methyl acetate]
≤ 100 | ≤ 100 |  | CC(C)Cc1cn(-c2nc(-c3nc4ccccc4[nH]3)cs2)c2cc(Cl)ccc12 [Example 35, 2-{2-[6-Chloro-3-isobutyl-1H-indol-1-yl]-1,3-thiazol-4-yl}-1H-benzimidazole hydrochloride]
≤ 100 | ≤ 100 |  | CC(C)Cc1cn(-c2nc(C(=O)Nc3ccccc3CO)cs2)c2cc(Cl)ccc12 [Example 20, 2-[6-Chloro-3-isobutyl-1H-indol-1-yl]-N-[2-(hydroxymethyl)phenyl]-1,3-thiazole-4-carboxamide]
≤ 100 | ≤ 100 | > 3160 | CC(C)Cc1cn(-c2nc(C(=O)Nc3c(F)cccc3F)cs2)c2cc(Cl)ccc12 [Example 33, 2-[6-Chloro-3-isobutyl-1H-indol-1-yl]-N-(2,6-difluorophenyl)-1,3-thiazole-4-carboxamide]
 |  | > 3160 | CC(C)Cc1cn(-c2nc(NC(=O)c3cccnc3)cs2)c2cc(Cl)ccc12 [Example 6, N-[2-(6-Chloro-3-isobutyl-1H-indol-1-yl)-1,3-thiazol-4-yl]nicotinamide]
 |  | > 3160 | CC(C)Cc1cn(-c2nc(NC(=O)c3ccc(CO)cc3)cs2)c2cc(Cl)ccc12 [Example 9, N-[2-(6-Chloro-3-isobutyl-1H-indol-1-yl)-1,3-thiazol-4-yl]-4-(hydroxymethyl)benzamide]
 |  | > 3160 | CCCNC(=O)Nc1csc(-n2cc(CC(C)C)c3ccc(Cl)cc32)n1 [Example 10, N-[2-(6-Chloro-3-isobutyl-1H-indol-1-yl)-1,3-thiazol-4-yl]-N′-propylurea]
 |  | > 3160 | CC(C)Cc1cn(-c2nc(C(=O)Nc3ccncc3)cs2)c2cc(Cl)ccc12 [Example 25, 2-[6-Chloro-3-isobutyl-1H-indol-1-yl]-N-4-pyridinyl-1,3-thiazole-4-carboxamide]
≤ 100 |  |  | CC(C)Cc1cn(-c2nc(NC(=O)c3c(F)cccc3F)cs2)c2cc(Cl)ccc12 [Example 5, N-[2-(6-Chloro-3-isobutyl-1H-indol-1-yl)-1,3-thiazol-4-yl]-2,6-difluorobenzamide]
